Where no end group is shown, it is not given here.
How the values were obtained:
Format in all cases: cell-based
[1] = test system: alveolar type II epithelial cells (T2 cells); experiment: Inhibition of T2 cell adhesion to immobilized cell adhesion peptide substrates by heparin treatment; conditions: 24-hour culture; for Inhibition of cell adhesion to immobilized peptide by heparin treatment: 100 μg/ml heparin 2 hours
Procedure: 100 μg/ml of heparin solution was poured into a well prepared according to the method in Example 6, wherein the cell adhesion peptides were immobilized, and the incubation was conducted for 2 hours. The heparin solution was removed after heparin bound to the immobilized cell adhesion peptides, and T2 cell suspension was seeded on the well.
It is theoretically shown that after the cell adhesion peptides first bind to heparin and are covered with heparin, the cell adhesion receptors having heparin-like sugar chain (heparan sulfate) present on the cell surface, in other words, syndecan, a protein that belongs to heparan sulfate proteoglycan, cannot bind to the cell adhesion peptides by using the sugar chain part of the heparan sulfate, thereby the cell adhesion is inhibited.

[2] = test system: alveolar type II epithelial cells (T2 cells); experiment: Binding strength (affinity) of immobilized LN peptides to T2 cells relative to immobilized FIB-1 (mixed immobilization, free FIB-1 competition); parameters: key to Binding strength to T2 cells, Comprehensive evaluation: AA: extremely strongly binding/adhering; A: strongly binding/adhering; B: intermediately binding/adhering (as the same degree as FIB-1 peptide); C: more weakly binding/adhering than FIB-1 peptide; conditions: for Binding strength to T2 cells, Comprehensive evaluation: classification relative to FIB-1 peptide; for Binding strength to T2 cells, Ratio to FIB-1: inverse of mixing ratio at transitional midpoint, MMAC-coated well
Procedure: Therefore, the amount of FIB-1 peptide was set at 0.25 mg/ml, and AG73 peptide was mixed therewith, while changing its concentration ratio, from 1/1.250 of FIB-1 in an amount which is 0.20 μg/ml, to ½ of FIB-1 in an amount which is 0.125 mg/ml, and the mixture was immobilized on a well wherein a hydrophobic binding-adsorptive polymer MMAC was coated. The amount of cell adhesion in the case where T2 cells were cultured under a serum-free condition for 1 day on the immobilized peptides is shown in FIG. 9, in comparison with the case where the culture was conducted on the immobilized FIB-1, which was set at 100%.
However, in a case that the ratio of FIB-1:AG73 increased to 1:0.02, because T2 cells already transited to be adherent through the immobilized AG73 peptide, free FIB-1 peptide could no longer inhibit the cell adhesion. […] Likewise, with regard to A3G72 and A4G82 peptides, because the mixing ratio at the transitional midpoint=0.1, their binding strength to T2 cells is 10 times as much as that of FIB-1.
The method used in FIGS. 8 and 9 is extremely effective as a convenient method by which a relative order can be measured concerning to the binding strength (affinity) of cell adhesion peptides and the strength of cell adhesion can be considered quantitatively.
In Table 1, the classification is shown based on the results of the affinity (bonding/adhesion strength) between FIB-1 peptide containing RGD amino acid sequence of FN molecule, a binding site to integrin, and T2 cells: laminin α-chain G-domain peptides are classified into class AA, extremely strong binding/adhesion; class A, strong adhesion; class B, adhesion as the same degree as FIB-1; and class C, binding weaker than the described above.

[3] = test system: alveolar type II epithelial cells (T2 cells); experiment: Inhibition by free cell adhesion peptides of T2 cell adhesion to coated cell adhesion proteins FN, Col I, LN, VN; conditions: free peptide 0.25 mg/ml; serum-free, 1 day
Procedure: Commercially available FN, LN and VN, usually used as cell adhesion proteins at cell culture, were coated to wells at the concentrations of 5 μg/ml, 10 μg/ml and 10 μg/ml, respectively. In case of Col I (collagen type I), Col I at the concentration of 100 μg/ml, dissolved in 1 mM HCl, was poured into a well, left stand still for a while, and then the solution was removed and air-drying was conducted, and rinsed with the medium, before use. Next, 6×10^5 cells/ml of alveolar type II epithelial cells (T2 cells) suspended in the serum-free DMEM medium was seeded by 100 μl each on a 96-well to which the extracellular matrix was coated, and cultured in a CO2 incubator at 37° C. for 1 day. After the culture was finished, the cells were fixed with 100 μl of methanol for 5 minutes, and stained for 30 minutes with 50 μl of 0.4% crystal violet. Excessive staining was washed with water, then the number of cells adhered to FN, Col I, LN and VN, which had been coated to the wells, was counted based on the absorbance of cytoplasm (A595).
On the other hand, among amino acid sequences of various LN molecules, the sequences that induce cell adhesion are known to be present. […] Then, the number of cells was counted in accordance with the method described above.

[4] = test system: alveolar type II epithelial cells (T2 cells); experiment: Inhibition of T2 cell adhesion by free peptide different from the immobilized peptide substrate; conditions: for Inhibition by free peptide of T2 cell adhesion to immobilized AG73: AG73 (etc.) immobilized; for Inhibition by free peptide of T2 cell adhesion to immobilized FIB-1: FIB-1 immobilized; for Inhibition by free peptide of T2 cell adhesion to immobilized AG81.2 and AG73T: AG81.2 and AG73T immobilized
Procedure: Results obtained by adding the free peptides different from the immobilized peptides when T2 cells were cultured on the immobilized peptide prepared according to the method in Example 7, were shown in FIG. 8.
When adding the free peptides that were the same as the immobilized peptides in the culture medium, the both (free and immobilized) peptides compete for syndecan of T2 cells and as a result, the cell adhesion is inhibited (see Example 7). So far, four types of syndecans are genetically known. Whether these syndecans are commonly owned or accommodated by each peptide, overlapping only by some degrees, otherwise mutually exclusive, was examined herein.

[5] = test system: alveolar type II epithelial cells (T2 cells); experiment: Adhesion of T2 cells to immobilized cell adhesion peptide substrates and inhibition by the same free peptide; conditions: for Inhibition degree of cell adhesion, Free peptide: T2 cells on immobilized peptide, same free peptide coexistent at 0.25 mg/ml; for Competitive inhibition of cell adhesion by the same free cell adhesion peptide: immobilized by MMAC or MAST, free peptide 0.25 mg/ml
Procedure: All treatments are assumed to be aseptic treatments. First, in the case of cell adhesion proteins, 10 μg/ml of a hydrophobic binding-adsorptive polymer, such as MMAC and MAST, and in the case of peptides, 50 μg/ml of MMAC and MAST is dissolved in ethanol, the solution is filtered and poured by 50 μl each into a 96-well with no surface treatment for cell culture, leave it stand still for a while, and then MMAC etc., are removed and air-drying is conducted. Next, 10-20 μg/ml of cell adhesion protein or 0.25 mg/ml of peptide is dissolved in 0.1 M triethanolamine buffer, a solution of pH 8.8, and the mixture was poured by 50 μl each into a 96-well previously coated with MMAC etc. The solution is reacted overnight while humidifying in an incubator heated at 37° C. After the reaction finishes, the reaction liquid is absorbed, the remaining reaction solution is rinsed out with the medium, and the immobilized preparation of cell adhesion proteins or peptides is prepared. The preparation, as described in the following Examples, can be used for cell cultures as cell adhesion protein or peptide substrates.
T2 cells suspended in the serum-free DMEM medium at the concentration of 6×10^4 cells/100 μl were seeded in the well prepared according to the manner in Example 6, wherein cell adhesion peptides were immobilized, and cultured in a CO2 incubator at 37° C. for 24 hours. Then, in accordance with the manner in Example 7, the cells were fixed with methanol, stained, and the absorbance was measured. Just before seeding the cells, the free peptides, the same kind as the cell adhesion peptides used for immobilization, were also added to the cell suspension, and the absorbance was measured after the culture in the same manner as described above. As to the case wherein FN was applied as a standard material, the measurement was conducted as well.
FIGS. 4 and 5 show the results obtained with the use of wells prepared by using laminin α-chain G-peptides and FIB-1 peptide as cell adhesion peptides, and as a hydrophobic binding-adsorptive polymer, MMAC was used in FIG. 4, and MAST was used in FIG. 5.

[6] = test system: alveolar type II epithelial cells (T2 cells); experiment: Inhibition of T2 cell adhesion to immobilized pseudomatrix by treatment with polyclonal antibodies for the peptides
Procedure: Each pseudomatrix prepared in Example 13 to which cell adhesion peptide was bound (MBAC-peptide) was diluted in DMEM medium to the concentration of 1-10 μg/ml, poured into a 96-well by 100 μl each, and left still overnight in a CO2 incubator to be adsorbed and immobilized on the wells. Non-adsorbed MBAC-peptides were removed by rinsing well with DMEM medium. Next, 100 μl of antibodies diluted with serum-free DMEM to the concentration of 4-10 μg/ml was poured into a well, incubated for 2-4 hours to let the antibodies bind to the peptides. Normal IgG was used for control groups. Antibodies were removed after the treatment, T2 cells suspended at the concentration of 6×10^5 cells/ml were seeded by 100 μl each. After 1-day serum-free culture, T2 cells were fixed with 100 μl of methanol for 5 minutes, and stained with 50 μl of 0.4% crystal violet for 30 minutes. Excessive staining was washed with water, and the number of adhering cells was counted based on the absorbance of cytoplasm (A595).

GPLPSYLQFVGI
Inhibition degree of cell adhesion, Heparin ([1]; immobilized peptide treated with 100 μg/ml heparin 2 hours): No | Binding strength to T2 cells, Comprehensive evaluation [2]: B | Binding strength to T2 cells, Ratio to FIB-1 ([2]; FIB-1 0.25 mg/ml): <1 | Mixing ratio at the transitional midpoint ([2]; peptide:FIB-1 co-immobilized, FIB-1 0.25 mg/ml, loss of inhibition by free FIB-1): about 1 | Inhibition of adhesion of T2 cells to FN, Col I, LN and VN by free peptide [3]: inhibited adhesion of T2 cells | Inhibition by free peptide of T2 cell adhesion to immobilized AG73 [4]: inhibited the cell adhesion | Inhibition by free peptide of T2 cell adhesion to immobilized FIB-1 [4]: could inhibit

KNRLTIELEVRT
Inhibition degree of cell adhesion, Free peptide [5]: No | Competitive inhibition of cell adhesion by the same free cell adhesion peptide [5]: without competitive inhibition | Inhibition of cell adhesion to immobilized peptide by heparin treatment [1]: inhibition of adhesion | Binding strength to T2 cells, Comprehensive evaluation [2]: C

TLQLQEGRLHFM
Inhibition degree of cell adhesion, Free peptide [5]: No | Competitive inhibition of cell adhesion by the same free cell adhesion peptide [5]: without competitive inhibition | Inhibition of cell adhesion to immobilized peptide by heparin treatment [1]: inhibition of adhesion | Binding strength to T2 cells, Comprehensive evaluation [2]: C

GEKSQFSIRLKT
Inhibition degree of cell adhesion, Free peptide [5]: No | Competitive inhibition of cell adhesion by the same free cell adhesion peptide [5]: without competitive inhibition | Inhibition of cell adhesion to immobilized peptide by heparin treatment [1]: inhibition of adhesion | Binding strength to T2 cells, Comprehensive evaluation [2]: C

LQQRRSVLRTKI
Inhibition degree of cell adhesion, Free peptide [5]: No | Competitive inhibition of cell adhesion by the same free cell adhesion peptide [5]: without competitive inhibition | Inhibition of cell adhesion to immobilized peptide by heparin treatment [1]: inhibition of adhesion | Binding strength to T2 cells, Comprehensive evaluation [2]: C | Inhibition by free peptide of T2 cell adhesion to immobilized AG73 [4]: cannot inhibit it | Inhibition by free peptide of T2 cell adhesion to immobilized AG81.2 and AG73T [4]: could not competitively inhibit their immobilized peptide, or even if they can, only slightly | Inhibition by free peptide of T2 cell adhesion to immobilized FIB-1 [4]: could not inhibit

VKTEYIKRKAFM
Inhibition degree of cell adhesion, Free peptide [5]: No | Competitive inhibition of cell adhesion by the same free cell adhesion peptide [5]: without competitive inhibition | Inhibition of cell adhesion to immobilized peptide by heparin treatment [1]: inhibition of adhesion | Binding strength to T2 cells, Comprehensive evaluation [2]: C | Binding strength to T2 cells, Ratio to FIB-1 ([2]; FIB-1 0.25 mg/ml): <1 | Inhibition by free peptide of T2 cell adhesion to immobilized AG73 [4]: cannot inhibit it | Inhibition by free peptide of T2 cell adhesion to immobilized AG81.2 and AG73T [4]: could not competitively inhibit their immobilized peptide, or even if they can, only slightly | Inhibition by free peptide of T2 cell adhesion to immobilized FIB-1 [4]: could not inhibit

RNRLHLSMLVRP
Competitive inhibition of cell adhesion by the same free cell adhesion peptide [5]: without competitive inhibition | Inhibition of cell adhesion to immobilized peptide by heparin treatment [1]: inhibition of adhesion | Binding strength to T2 cells, Comprehensive evaluation [2]: C

MBAC-AG73T: pseudomatrix: MBAC polymer reacted with AG73T peptide (LQQRRSVLRTKI)
Cell adhesion ability of immobilized pseudomatrix compared with coated FN ([6]; MBAC-peptide 1-10 μg/ml in DMEM): the same level of cell adhesion ability as in the case where FN was coated | Inhibition of cell adhesion by treatment with antibodies for the peptides ([6]; antibodies 4-10 μg/ml, 2-4 hours): specifically inhibited
